# Experimental data as given in ChEMBL document CHEMBL1146112, “Fluorescent glycosidase inhibiting 1,5-dideoxy-1,5-iminoalditols” (Bioorg Med Chem Lett, 2006).
# Tests used:
# [1] = target: T1, Tissue alpha-L-fucosidase (Homo sapiens, UniProt P04066); experiment: Inhibition of human liver alpha-L-fucosidase
# T1 sequence (P04066 whole entry): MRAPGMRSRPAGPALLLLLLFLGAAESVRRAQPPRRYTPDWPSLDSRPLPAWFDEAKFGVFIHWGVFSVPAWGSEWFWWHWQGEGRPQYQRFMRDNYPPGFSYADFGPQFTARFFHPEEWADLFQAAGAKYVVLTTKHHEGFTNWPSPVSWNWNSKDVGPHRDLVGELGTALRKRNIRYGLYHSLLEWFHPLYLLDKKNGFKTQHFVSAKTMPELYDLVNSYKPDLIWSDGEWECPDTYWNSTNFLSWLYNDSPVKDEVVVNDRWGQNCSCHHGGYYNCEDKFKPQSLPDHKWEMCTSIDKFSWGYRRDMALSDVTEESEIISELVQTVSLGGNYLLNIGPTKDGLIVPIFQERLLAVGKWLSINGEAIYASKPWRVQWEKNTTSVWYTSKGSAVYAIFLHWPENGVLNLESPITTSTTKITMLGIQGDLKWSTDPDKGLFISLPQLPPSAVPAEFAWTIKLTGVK
# Beta-xylosidase = target: T2, Beta-xylosidase (Thermoanaerobacterium saccharolyticum, UniProt P36906); experiment: Inhibition of Thermoanaerobacterium saccharolyticum beta-xylosidase
# T2 sequence (P36906 whole entry): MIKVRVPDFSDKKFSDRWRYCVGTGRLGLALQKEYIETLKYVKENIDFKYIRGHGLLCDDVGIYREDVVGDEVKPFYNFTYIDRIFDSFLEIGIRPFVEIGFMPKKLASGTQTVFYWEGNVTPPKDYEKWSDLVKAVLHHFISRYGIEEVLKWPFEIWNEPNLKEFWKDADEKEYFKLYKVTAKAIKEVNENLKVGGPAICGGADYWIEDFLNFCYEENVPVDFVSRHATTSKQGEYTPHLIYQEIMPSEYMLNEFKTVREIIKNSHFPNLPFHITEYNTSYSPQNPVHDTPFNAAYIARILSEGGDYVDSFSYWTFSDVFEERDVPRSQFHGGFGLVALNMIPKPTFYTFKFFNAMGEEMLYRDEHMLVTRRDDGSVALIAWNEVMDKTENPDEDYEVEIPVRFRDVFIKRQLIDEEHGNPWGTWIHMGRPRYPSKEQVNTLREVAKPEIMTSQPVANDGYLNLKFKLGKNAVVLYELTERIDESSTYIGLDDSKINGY
SMILES,Ki [1],Ki (Beta-xylosidase)
C[C@H]1[C@@H](O)[C@@H](O)[C@H](O)CN1CCCCCCNS(=O)(=O)c1cccc2c(N(C)C)cccc12,0.5 µM,
CN(C)c1cccc2c(S(=O)(=O)NCCCCCCN3C[C@@H](O)[C@H](O)[C@@H](O)C3)cccc12,,7.6 µM
O[C@H]1[C@H](O)CNC[C@@H]1O [DIDEOXYIMINOXYLITOL],,206 µM
